# In patent EP4745135A1 (Gluetacs Therapeutics (Shanghai) Co., Ltd., priority 2023, dated 2025):
# Key:
# CK1α = biological target: T1, CK1α (Homo sapiens, UniProt P48729+Q96SW2); assay: Western blot, degradation of substrate protein in hPBMCs; format: cell-based
# T1 construct: effects of the compounds of the present disclosure on the expression of target proteins in cells; endogenous in cells; host or cells: human PBMCs (Milecell Biotechnologies)
# IKZF2 = biological target: T2, IKZF2 (Homo sapiens, UniProt Q96SW2+Q9UKS7); assay: as above; format: cell-based
# T2 construct: effects of the compounds of the present disclosure on the expression of target proteins in cells; endogenous in cells; host or cells: human PBMCs (Milecell Biotechnologies)
# IKZF1 = biological target: T3, IKZF1 (Homo sapiens, UniProt Q13422+Q96SW2); assay: as above; format: cell-based
# T3 construct: effects of the compounds of the present disclosure on the expression of target proteins in cells; endogenous in cells; host or cells: human PBMCs (Milecell Biotechnologies)
# IKZF3 = biological target: T4, IKZF3 (Homo sapiens, UniProt Q96SW2+Q9UKT9); assay: as above; format: cell-based
# T4 construct: effects of the compounds of the present disclosure on the expression of target proteins in cells; endogenous in cells; host or cells: human PBMCs (Milecell Biotechnologies)
# WEE1 = biological target: T5, WEE1 (Homo sapiens, UniProt P30291+Q96SW2); assay: as above; format: cell-based
# T5 construct: effects of the compounds of the present disclosure on the expression of target proteins in cells; endogenous in cells; host or cells: human PBMCs (Milecell Biotechnologies)
# GSPT1 = assay: as above; format: cell-based, Human
# [1] = test system: Human multiple myeloma peripheral blood B lymphocyte cell (RPMI-8226); assay: Tumor cell proliferation inhibition (CellTiter-Meiluncell luminescent cell viability assay); conditions: RPMI-8226, 96 h; for inhibition at 0.01 µM: read-out: Inhibition Rate at 10 nM (%); for inhibition at 0.5 µM: read-out: Inhibition Rate at 500 nM (%)
# [2] = biological target: T6, human Cereblon WT GST-tagged protein (Homo sapiens, UniProt Q96SW2); assay: CRBN-binding affinity, HTRF (CEREBLON BINDING kit); conditions: for inhibition at 0.5 µM: read-out: Inhibition Rate at 0.5 µM (%); for inhibition at 2 µM: read-out: Inhibition Rate at 2 µM (%)
# T6 construct: purchased CISBIO 64BDCRBNPEH
# [3] = test system: Human breast cancer cell (MCF-7); assay: Tumor cell proliferation inhibition (CellTiter-Meiluncell luminescent cell viability assay); conditions: MCF7, 96 h; for inhibition at 0.01 µM: read-out: Inhibition Rate at 10 nM (%); for inhibition at 0.5 µM: read-out: Inhibition Rate at 500 nM (%)
# Method: The tumor cells used herein were cultured in a cell culture medium listed in table 2 at 37°C in an incubator with 5% CO2. Prior to experimentation, all cell lines used were correctly identified by STR profiling, and tested negative for mycoplasma contamination using a mycoplasma detection kit through routine screenings.
# The IC50 values of the compounds of the present disclosure (including the compounds in Table 1 and Examples) were determined using the CellTiter-Meiluncell Luminescent Cell Viability Assay Kit from Dalian Meilun Biotech Co., Ltd. The detailed procedure is as follows: Tumor cells were seeded in 96-well cell culture plates at the densities specified in Table 3. On the following day, the test compounds of the present disclosure were subjected to serial dilution. The dilution can be performed according to one of the following two methods: • (1) The first dilution method: The test compounds of the present disclosure (including the compounds in Table 1 and Examples) were subjected to 5-fold serial dilutions starting from a highest concentration of 2000 µM, resulting in a total of 9 concentrations from high to low (2000, 400, 80, 16, 3.2, 0.64, 0.128, 0.0256, 0.00512 µM). Subsequently, 0.5 µL of the test compound dilution was transferred into the 96-well plate containing the cells, with each well containing 100 µL of cell culture medium. […] Into the 96-well plate, the diluted test compounds and corresponding detection reagents were added, resulting in final test compound concentrations of 500 nM and 10 nM, respectively. The experimental procedure is described below using the diluted 2 µM test compound as an example.
# 0.5 µL of the aforementioned diluted compound of the present disclosure (including the compounds in Table 1 and Examples) was added to the seeded cells in 100 µL of medium, yielding a final test compound concentration of 10 nM. After the cells were treated with the compounds of the present disclosure for a specified period, the cell viability assay reagent was added to the culture medium according to the kit's instructions to determine cell viability. […] All controls were treated using the same procedure as the compounds of the present disclosure. The growth inhibition curves for the compounds of the present disclosure were plotted using Prism GraphPad software, and the IC50 values were calculated therefrom.
# [4] = test system: Human myeloid monocytic leukemia cell (MV-4-11); assay: as above; conditions: MV4-11, 96 h; for inhibition at 0.01 µM: read-out: Inhibition Rate at 10 nM (%); for inhibition at 0.5 µM: read-out: Inhibition Rate at 500 nM (%)
# [5] = test system: Human multiple myeloma cell (MM.1S); assay: as above; conditions: for inhibition at 0.01 µM / inhibition at 0.5 µM: Homo sapiens, MM1.S, 96 h; for inhibition at 0.01 µM: read-out: Inhibition Rate at 10 nM (%); for inhibition at 0.5 µM: read-out: Inhibition Rate at 500 nM (%); for Inhibition Rate at 500 nM (%): MM.1S, 96 hours
# [6] = test system: Human acute T lymphocytic leukemia cell (Molt4); assay: as above; conditions: MOLT-4, 96 h
# [7] = Western blot, 24 hours of compound treatment, compounds tested at 50 nM and 500 nM (concentration for the table not stated)
# [8] = 24 hours treatment, compounds at 50 nM and 500 nM (concentration behind the class not stated)
# T3 sequence (Q13422 whole entry): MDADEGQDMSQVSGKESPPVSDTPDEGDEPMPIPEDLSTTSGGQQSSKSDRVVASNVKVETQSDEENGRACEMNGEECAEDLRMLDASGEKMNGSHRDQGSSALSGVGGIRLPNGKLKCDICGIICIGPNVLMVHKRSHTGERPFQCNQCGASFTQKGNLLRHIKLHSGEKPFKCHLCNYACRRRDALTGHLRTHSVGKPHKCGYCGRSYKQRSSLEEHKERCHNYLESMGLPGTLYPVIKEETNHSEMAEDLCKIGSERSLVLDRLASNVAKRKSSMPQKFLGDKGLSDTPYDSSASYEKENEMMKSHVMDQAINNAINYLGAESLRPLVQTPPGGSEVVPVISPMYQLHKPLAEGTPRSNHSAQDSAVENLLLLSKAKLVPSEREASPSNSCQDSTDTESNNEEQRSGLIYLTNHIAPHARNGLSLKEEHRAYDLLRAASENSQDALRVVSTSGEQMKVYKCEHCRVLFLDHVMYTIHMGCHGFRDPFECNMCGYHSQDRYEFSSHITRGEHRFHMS
# T3 sequence (Q96SW2 whole entry): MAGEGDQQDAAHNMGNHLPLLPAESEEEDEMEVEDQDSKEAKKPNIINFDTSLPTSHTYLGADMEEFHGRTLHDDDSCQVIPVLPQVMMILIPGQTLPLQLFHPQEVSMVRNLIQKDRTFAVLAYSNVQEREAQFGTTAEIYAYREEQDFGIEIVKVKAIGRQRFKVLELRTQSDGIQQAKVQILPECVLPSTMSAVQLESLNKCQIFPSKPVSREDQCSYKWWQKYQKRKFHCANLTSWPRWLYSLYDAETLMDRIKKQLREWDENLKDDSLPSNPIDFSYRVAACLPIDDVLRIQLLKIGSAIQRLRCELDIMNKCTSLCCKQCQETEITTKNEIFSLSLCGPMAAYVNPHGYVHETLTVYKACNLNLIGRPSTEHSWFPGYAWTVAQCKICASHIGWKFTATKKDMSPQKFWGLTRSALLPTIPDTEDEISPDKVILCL
# T3 sequence (Q16531 whole entry partner): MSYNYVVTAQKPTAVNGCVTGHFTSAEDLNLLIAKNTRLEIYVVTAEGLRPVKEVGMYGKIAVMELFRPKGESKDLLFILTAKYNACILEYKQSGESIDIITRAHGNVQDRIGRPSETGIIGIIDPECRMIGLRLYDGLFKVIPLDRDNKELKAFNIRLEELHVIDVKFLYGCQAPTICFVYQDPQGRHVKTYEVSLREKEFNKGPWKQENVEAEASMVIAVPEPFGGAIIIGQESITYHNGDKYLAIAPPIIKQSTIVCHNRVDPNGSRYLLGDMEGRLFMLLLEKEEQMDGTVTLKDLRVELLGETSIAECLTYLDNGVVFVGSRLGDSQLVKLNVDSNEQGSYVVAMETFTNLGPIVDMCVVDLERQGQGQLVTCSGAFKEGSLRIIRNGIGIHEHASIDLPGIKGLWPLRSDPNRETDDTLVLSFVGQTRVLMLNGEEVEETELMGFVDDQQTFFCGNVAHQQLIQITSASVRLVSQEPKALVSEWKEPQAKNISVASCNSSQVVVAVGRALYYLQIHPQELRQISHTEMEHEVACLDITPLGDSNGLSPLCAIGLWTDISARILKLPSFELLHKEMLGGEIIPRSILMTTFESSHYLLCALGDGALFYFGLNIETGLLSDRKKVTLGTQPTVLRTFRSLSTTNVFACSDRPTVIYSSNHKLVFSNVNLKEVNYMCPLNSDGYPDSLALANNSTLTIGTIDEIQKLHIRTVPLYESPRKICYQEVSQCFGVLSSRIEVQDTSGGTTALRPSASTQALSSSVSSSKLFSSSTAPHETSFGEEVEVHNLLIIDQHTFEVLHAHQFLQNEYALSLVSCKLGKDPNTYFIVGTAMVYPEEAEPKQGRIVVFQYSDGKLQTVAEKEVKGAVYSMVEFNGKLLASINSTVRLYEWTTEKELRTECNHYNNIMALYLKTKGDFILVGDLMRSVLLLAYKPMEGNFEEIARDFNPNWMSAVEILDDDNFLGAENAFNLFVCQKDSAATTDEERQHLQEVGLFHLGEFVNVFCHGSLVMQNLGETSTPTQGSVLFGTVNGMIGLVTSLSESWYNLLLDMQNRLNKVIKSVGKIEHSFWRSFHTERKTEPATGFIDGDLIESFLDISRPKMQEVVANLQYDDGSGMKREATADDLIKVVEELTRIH
# T6 sequence (Q96SW2 whole entry): as the sequence (Q96SW2 whole entry) above
# T5 sequence (P30291 whole entry): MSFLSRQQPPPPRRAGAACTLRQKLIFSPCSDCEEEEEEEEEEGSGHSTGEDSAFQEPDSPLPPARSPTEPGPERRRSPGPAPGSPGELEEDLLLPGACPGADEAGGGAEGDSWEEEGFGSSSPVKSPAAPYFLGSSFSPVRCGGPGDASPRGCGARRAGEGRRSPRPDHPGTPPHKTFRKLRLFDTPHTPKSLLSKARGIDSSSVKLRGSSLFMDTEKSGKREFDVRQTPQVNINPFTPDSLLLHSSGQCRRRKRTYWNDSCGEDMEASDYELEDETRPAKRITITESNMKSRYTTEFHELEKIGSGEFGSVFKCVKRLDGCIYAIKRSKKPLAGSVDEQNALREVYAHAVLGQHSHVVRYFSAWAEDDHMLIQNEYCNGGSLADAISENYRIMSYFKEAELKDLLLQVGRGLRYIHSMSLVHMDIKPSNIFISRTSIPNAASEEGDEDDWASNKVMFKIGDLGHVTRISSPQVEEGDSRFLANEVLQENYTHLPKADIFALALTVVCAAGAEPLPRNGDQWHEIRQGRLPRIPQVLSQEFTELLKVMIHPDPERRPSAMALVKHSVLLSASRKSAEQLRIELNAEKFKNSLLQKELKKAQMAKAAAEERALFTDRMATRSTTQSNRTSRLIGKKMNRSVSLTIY
# T5 sequence (Q96SW2 whole entry): as the sequence (Q96SW2 whole entry) above
# T5 sequence (Q16531 whole entry partner): as the sequence (Q16531 whole entry partner) above
# T4 sequence (Q9UKT9 whole entry): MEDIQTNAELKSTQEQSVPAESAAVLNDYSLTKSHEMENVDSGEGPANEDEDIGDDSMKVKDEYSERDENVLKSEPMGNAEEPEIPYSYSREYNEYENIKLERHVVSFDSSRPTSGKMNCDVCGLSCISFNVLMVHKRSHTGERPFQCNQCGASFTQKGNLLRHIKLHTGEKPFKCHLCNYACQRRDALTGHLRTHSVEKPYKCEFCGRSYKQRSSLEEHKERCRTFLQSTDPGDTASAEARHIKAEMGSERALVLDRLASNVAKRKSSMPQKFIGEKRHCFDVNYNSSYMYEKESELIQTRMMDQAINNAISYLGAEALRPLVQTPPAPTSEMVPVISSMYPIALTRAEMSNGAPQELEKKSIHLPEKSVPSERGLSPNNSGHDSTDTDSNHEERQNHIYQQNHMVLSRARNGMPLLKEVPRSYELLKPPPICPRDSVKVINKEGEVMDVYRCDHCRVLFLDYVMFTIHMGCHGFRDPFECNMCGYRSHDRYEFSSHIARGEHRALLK
# T4 sequence (Q96SW2 whole entry): as the sequence (Q96SW2 whole entry) above
# T4 sequence (Q16531 whole entry partner): as the sequence (Q16531 whole entry partner) above
# T1 sequence (P48729 whole entry): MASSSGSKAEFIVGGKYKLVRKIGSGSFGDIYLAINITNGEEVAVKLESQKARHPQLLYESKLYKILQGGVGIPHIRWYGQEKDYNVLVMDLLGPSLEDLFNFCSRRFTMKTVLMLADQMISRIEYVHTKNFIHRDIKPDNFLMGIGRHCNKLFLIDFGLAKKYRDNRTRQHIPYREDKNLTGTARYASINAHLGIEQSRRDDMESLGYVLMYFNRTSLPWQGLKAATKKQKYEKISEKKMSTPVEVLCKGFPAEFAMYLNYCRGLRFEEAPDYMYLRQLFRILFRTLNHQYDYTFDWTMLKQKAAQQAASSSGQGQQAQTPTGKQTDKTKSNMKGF
# T1 sequence (Q96SW2 whole entry): as the sequence (Q96SW2 whole entry) above
# T1 sequence (Q16531 whole entry partner): as the sequence (Q16531 whole entry partner) above
# T2 sequence (Q9UKS7 whole entry): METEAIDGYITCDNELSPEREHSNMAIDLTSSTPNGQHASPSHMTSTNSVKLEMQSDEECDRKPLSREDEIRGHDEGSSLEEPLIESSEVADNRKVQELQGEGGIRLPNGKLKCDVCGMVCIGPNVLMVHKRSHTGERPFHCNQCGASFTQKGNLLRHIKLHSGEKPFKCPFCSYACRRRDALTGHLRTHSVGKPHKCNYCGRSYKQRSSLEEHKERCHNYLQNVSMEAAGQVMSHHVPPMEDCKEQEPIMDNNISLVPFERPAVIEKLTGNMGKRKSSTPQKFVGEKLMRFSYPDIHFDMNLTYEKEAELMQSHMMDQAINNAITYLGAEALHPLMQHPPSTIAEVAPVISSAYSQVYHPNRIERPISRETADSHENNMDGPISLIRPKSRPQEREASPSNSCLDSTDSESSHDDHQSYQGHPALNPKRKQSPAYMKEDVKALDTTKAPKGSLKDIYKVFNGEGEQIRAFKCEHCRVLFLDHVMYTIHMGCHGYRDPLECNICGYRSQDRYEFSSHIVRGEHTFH
# T2 sequence (Q96SW2 whole entry): as the sequence (Q96SW2 whole entry) above
# T2 sequence (Q16531 whole entry partner): as the sequence (Q16531 whole entry partner) above
Compound,CK1α substrate protein remaining % (CK1α; [7]),IKZF2 substrate protein remaining % (IKZF2; [7]),IKZF 1 substrate protein remaining % (IKZF1; [7]),IKZF3 substrate protein remaining % (IKZF3; [7]),Wee1 substrate protein remaining % (WEE1; [7]),GSPT1 substrate protein remaining % (GSPT1; [7]),inhibition at 0.01 µM [1] [%],inhibition at 0.5 µM [1] [%],inhibition at 0.5 µM [2] [%],inhibition at 2 µM [2] [%],inhibition at 0.01 µM [3] [%],inhibition at 0.5 µM [3] [%],inhibition at 0.01 µM [4] [%],inhibition at 0.5 µM [4] [%],inhibition at 0.01 µM [5] [%],also measured
"O=C1CCC(N2Cc3c(CN4CCN(C(c5ccccc5)c5ccncc5)CC4)cccc3C2=S)C(=O)N1 (centres unmarked) [GT-08204, 3-(4-((4-(phenyl(pyridin-4-yl)methyl)piperazin-1-yl)methyl)-1-thioxoisoindolin-2-yl)piperidine-2,6-dione]",B (80%< substrate protein remaining %≤ 100%),B (80%< substrate protein remaining %≤ 100%),B (80%< substrate protein remaining %≤ 100%),B (80%< substrate protein remaining %≤ 100%),A (0% ≤ substrate protein remaining % ≤ 80%),B (80%< substrate protein remaining %≤ 100%),60 to 70,70 to 80,40 to 53,80 to 100,–,–,–,–,–,–
"O=C1CCC(N2Cc3c(CN4CCN(c5n[nH]c6cc(F)ccc56)CC4)cccc3C2=S)C(=O)N1 (centres unmarked) [GT-08840, 3-(4-((4-(6-fluoro-1H-indazol-3-yl)piperazin-1-yl)methyl)-1-thioxoisoindolin-2-yl)piperidine-2,6-dione]",B (80%< substrate protein remaining %≤ 100%),B (80%< substrate protein remaining %≤ 100%),B (80%< substrate protein remaining %≤ 100%),B (80%< substrate protein remaining %≤ 100%),A (0% ≤ substrate protein remaining % ≤ 80%),B (80%< substrate protein remaining %≤ 100%),–,–,60 to 80,80 to 100,50 to 60,60 to 70,40 to 60,40 to 60,–,–
"O=C1CCC(N2Cc3c(CN4C[C@@H]5C[C@H]4CN5C(c4ccccc4)c4ccccc4)cccc3C2=S)C(=O)N1 (stereo partly drawn) [GT-08207, 3-(4-(((1 S,4S)-5-benzhydryl-2,5-diazabicyclo[2.2.1]heptan-2-yl)methyl)-1-thioxoisoindolin-2-yl)piperidine-2,6-dione]",B (80%< substrate protein remaining %≤ 100%),B (80%< substrate protein remaining %≤ 100%),A (0% ≤ substrate protein remaining % ≤ 80%),B (80%< substrate protein remaining %≤ 100%),A (0% ≤ substrate protein remaining % ≤ 80%),A (0% ≤ substrate protein remaining % ≤ 80%),50 to 60,60 to 70,40 to 53,60 to 80,–,–,–,–,–,–
"Cc1ccc(N2CCN(Cc3cccc4c3CN(C3CCC(=O)NC3=O)C4=S)CC2)c(C)c1 (centres unmarked) [GT-08504, 3-(4-((4-(2,4-dimethylphenyl)piperazin-1-yl)methyl)-1-thioxoisoindolin-2-yl)piperidine-2,6-dione]",B (80%< substrate protein remaining %≤ 100%),B (80%< substrate protein remaining %≤ 100%),B (80%< substrate protein remaining %≤ 100%),A (0% ≤ substrate protein remaining % ≤ 80%),A (0% ≤ substrate protein remaining % ≤ 80%),A (0% ≤ substrate protein remaining % ≤ 80%),–,–,30 to 40,60 to 80,20 to 30,40 to 50,40 to 60,40 to 60,30 to 40,inhibition at 0.5 µM [5]: 50 to 60%
"Cn1cc(C2CCN(Cc3ccc4c(c3)CN(C3CCC(=O)NC3=O)C4=S)CC2)c2ccc(F)cc21 (centres unmarked) [GT-09267, 3-(5-((4-(6-fluoro-1-methyl-1H-indol-3-yl)piperidin-1-yl)methyl)-1-thioxoisoindolin-2-yl)piperidine-2,6-dione]",–,–,–,–,–,–,–,–,53 to 60,80 to 100,5 to 10,70 to 80,80 to 100,80 to 100,70 to 80,CK1α substrate protein remaining % (CK1α; [8]): B (80%< substrate protein remaining %≤ 100%); IKZF2 substrate protein remaining % (IKZF2; [8]): A (0% ≤ substrate protein remaining % ≤ 80%); IKZF 1 substrate protein remaining % (IKZF1; [8]): A (0% ≤ substrate protein remaining % ≤ 80%); IKZF3 substrate protein remaining % (IKZF3; [8]): A (0% ≤ substrate protein remaining % ≤ 80%); Wee1 substrate protein remaining % (WEE1; [8]): A (0% ≤ substrate protein remaining % ≤ 80%); GSPT1 substrate protein remaining % (GSPT1; [8]): A (0% ≤ substrate protein remaining % ≤ 80%); inhibition at 0.5 µM [5]: 80 to 100%; inhibition at 0.01 µM ([6]; read-out: Inhibition Rate at 10 nM (%)): 80 to 100%; inhibition at 0.5 µM ([6]; read-out: Inhibition Rate at 500 nM (%)): 80 to 100%
"O=C1CCC(N2Cc3c(CN4CCN(c5cccc6sccc56)CC4)cccc3C2=S)C(=O)N1 (centres unmarked) [GT-08364, 3-(4-((4-(benzo[b]thiophen-4-yl)piperazin-1-yl)methyl)-1-thioxoisoindolin-2-yl)piperidine-2,6-dione]",B (80%< substrate protein remaining %≤ 100%),B (80%< substrate protein remaining %≤ 100%),B (80%< substrate protein remaining %≤ 100%),B (80%< substrate protein remaining %≤ 100%),A (0% ≤ substrate protein remaining % ≤ 80%),A (0% ≤ substrate protein remaining % ≤ 80%),20 to 30,40 to 50,40 to 53,80 to 100,–,–,–,–,40 to 50,Inhibition Rate at 500 nM (%) [5]: la8
"O=C1CCC(N2Cc3c(CN4CCN(CC5=C(c6ccc(F)cc6)CCCC5)CC4)cccc3C2=S)C(=O)N1 (centres unmarked) [GT-08293, 3-(4-((4-((4'-fluoro-3,4,5,6-tetrahydro-[1,1'-biphenyl]-2-yl)methyl)piperazin-1-yl)methyl)-1-thioxoisoindolin-2-yl)piperidine-2,6-dione]",B (80%< substrate protein remaining %≤ 100%),B (80%< substrate protein remaining %≤ 100%),B (80%< substrate protein remaining %≤ 100%),B (80%< substrate protein remaining %≤ 100%),A (0% ≤ substrate protein remaining % ≤ 80%),B (80%< substrate protein remaining %≤ 100%),20 to 30,40 to 50,30 to 40,60 to 80,–,–,–,–,–,–
"Cc1cc(N2CCN(Cc3ccc4c(c3)CN(C3CCC(=O)NC3=O)C4=S)CC2)cc(C)n1 (centres unmarked) [GT-09247, 3-(5-((4-(2,6-dimethylpyridin-4-yl)piperazin-1-yl)methyl)-1-thioxoisoindolin-2-yl)piperidine-2,6-dione]",–,–,–,–,–,–,–,–,60 to 80,80 to 100,20 to 30,40 to 50,40 to 60,40 to 60,50 to 60,Inhibition Rate at 500 nM (%) [5]: la7
